Marks after values point to notes of the source that are not given here.
Assays:
Type in all cases: in vivo
mice of the C3H strain = test: Skin irritancy on clipped back skin, visual score, Example 3; details: three repeated topical administration, 1% in ethanol
Method: This experiment was conducted to test the skin irritancy of the compositions of this invention on hair-growing areas of test subjects, i.e., female mice (10 weeks old) of the C3H strain (n=5 group). After clipping the hair of the back skin of mice with an electric clipper, 5 μL/cm^2 of each four composition tested in Examples 1 and 2 (at a concentration of 1% in an ethanol solution) were applied. The application was administered once a day, for 3 consecutive days. Skin irritation was evaluated by unaided visual inspection at the end of the third day.

mice (Sencar strain) = test: Ear thickness after TPA plus pyrethroid application, Example 2
Method: Another ear thickness experiment was performed. Ear thickness of mice (Sencar strain, female, 10 weeks of age, n =3/group) was measured with a thickness gage (Mitsutoyo Corp.). After measuring the thickness of both ears at the beginning of the experiment, 20 μL of 12-O-tetradecanoyl-phorbol 13-acetate (TPA) at a concentration of 10^−4 M in acetone was applied on both ears, followed by the application of 10 μL of ethanol on the left ears and 10 μL of the four compositions tested in Example 1 on the right ears (at a concentration of 1% of pyrethroid compound in ethanol solution). Again, ear thickness was monitored over three consecutive days following administration of the compositions.

mice (C3H strain) = test: Ear thickness (primary skin irritancy) after topical application, Example 1; details: for Ear thickness compared to ethanol: 1% in ethanol
Method: The following example was performed to determine if pyrethroid compounds cause skin irritation (as indicated by ear thickness in mice). Skin irritants may contribute to promoting hair growth.
Prior to the experiment, ear thickness of mice (C3H strain, female, 16 weeks of age, n=3/group) was measured with a thickness gage (Mitsutoyo Corp.). After measuring ear thickness of both ears, 10 μL of ethanol was applied on left ear and 10 μL of a pyrethroid solution (1% pyrethroid compound in ethanol) was applied to the right ear. Ear thickness was measured for three consecutive days after administration.

C3H strain mice [1] = test: Hair growth on clipped back skin, topical daily application, Example 4; parameters: Level of hair growth (unaided visual inspection): scale not given here; details: for Promoting hair growth: 1% topical daily; for Level of hair growth (unaided visual inspection): 1%, 5 μL/cm^2 daily, n=5/group
Method: The ability of topical administration of pyrethroid compounds to promote hair growth was assessed in female C3H strain mice (10 weeks old; n=5/group). Hair on the back skin of the mice was clipped carefully with an electric clipper. 5 μL/cm^2 of the five compositions tested in the examples above were applied to the mice daily. The level of hair growth at the applied skin areas were evaluated by unaided visual inspection at the indicated time.

C3H strain mice [2] = test: Hair growth on clipped back skin, repeat with minoxidil control, Example 5; parameters: Level of hair growth (unaided visual inspection): scale not given here; details: for Promoting hair growth: concentrations of 0.1% and 1% in ethanol solutions
Method: The ability of topical administration of pyrethroid compounds to promote hair growth was assessed in female C3H strain mice (10 weeks old; n=5/group). Hair on the back skin of the mice was clipped carefully with an electric clipper. 5 μL/cm^2 of the five compositions tested in the examples above were applied to the mice daily. The level of hair growth at the applied skin areas were evaluated by unaided visual inspection at the indicated time. Cyclosporin A was used as a control.
The experiment described in Example 4 was repeated with a commercially available hair growth-promoting compound (5% minoxidil) as a control.

[3] = day 0 (before application), Sencar female mice, n=3
[4] = day 1, 20 μL TPA 10^−4 M in acetone then 10 μL of 1% in ethanol, Sencar mice
[5] = day 2, 20 μL TPA 10^−4 M in acetone then 10 μL of 1% in ethanol, Sencar mice
[6] = day 3, 20 μL TPA 10^−4 M in acetone then 10 μL of 1% in ethanol, Sencar mice
[7] = day 0 (before application), C3H female mice, n=3
[8] = day 1, 10 μL of 1% in ethanol on right ear, C3H mice
[9] = day 2, 10 μL of 1% in ethanol on right ear, C3H mice
[10] = day 3, 10 μL of 1% in ethanol on right ear, C3H mice

## CC1(C)C(C=C(Cl)Cl)C1C(=O)OC(C#N)c1cccc(Oc2ccccc2)c1 (stereo not drawn) [Cypermethrin, cypermethrin]
Mice of the C3H strain
  Skin irritation (redness): failed to cause skin irritation
Mice (Sencar strain); [3]
  Right ear thickness: 24.0 ×0.01 mm
Mice (Sencar strain); [4]
  Right ear thickness: 26.7 ×0.01 mm
Mice (Sencar strain); [5]
  Right ear thickness: 28.3 ×0.01 mm
Mice (Sencar strain); [6]
  Right ear thickness: 27.3 ×0.01 mm
Mice (C3H strain); C3H mice
  Ear thickness compared to ethanol: did not increase ear thickness
Mice (C3H strain); [7]
  Right ear thickness: 27.7 ×0.01 mm
Mice (C3H strain); [8]
  Right ear thickness: 27.7 ×0.01 mm
Mice (C3H strain); [9]
  Right ear thickness: 27.3 ×0.01 mm
Mice (C3H strain); [10]
  Right ear thickness: 28.0 ×0.01 mm
C3H strain mice [1]
  Promoting hair growth: effective in promoting hair growth
C3H strain mice [1]; Day 7
  Level of hair growth (unaided visual inspection): 0
C3H strain mice [1]; Day 14
  Level of hair growth (unaided visual inspection): 0
C3H strain mice [1]; Day 19
  Level of hair growth (unaided visual inspection): 2
C3H strain mice [1]; Day 29
  Level of hair growth (unaided visual inspection): 4
C3H strain mice [1]; Day 36
  Level of hair growth (unaided visual inspection): 5
C3H strain mice [2]; 0.01%, Week 1
  Level of hair growth (unaided visual inspection): 0
C3H strain mice [2]; 0.01%, Week 2
  Level of hair growth (unaided visual inspection): 0
C3H strain mice [2]; 0.01%, Week 3
  Level of hair growth (unaided visual inspection): 0
C3H strain mice [2]; 0.01%, Week 4
  Level of hair growth (unaided visual inspection): 0
C3H strain mice [2]; 0.01%, Week 5
  Level of hair growth (unaided visual inspection): 0
C3H strain mice [2]; 0.01%, Week 6
  Level of hair growth (unaided visual inspection): 0
C3H strain mice [2]; 0.1%, Week 1
  Level of hair growth (unaided visual inspection): 0
C3H strain mice [2]; 0.1%, Week 2
  Level of hair growth (unaided visual inspection): 0
C3H strain mice [2]; 0.1%, Week 3
  Level of hair growth (unaided visual inspection): 5
C3H strain mice [2]; 0.1%, Week 4
  Level of hair growth (unaided visual inspection): 5
C3H strain mice [2]; 0.1%, Week 5
  Level of hair growth (unaided visual inspection): 5
C3H strain mice [2]; 0.1%, Week 6
  Level of hair growth (unaided visual inspection): 5
C3H strain mice [2]; 1%, Week 1
  Level of hair growth (unaided visual inspection): 0
C3H strain mice [2]; 1%, Week 2
  Level of hair growth (unaided visual inspection): 0
C3H strain mice [2]; 1%, Week 3
  Level of hair growth (unaided visual inspection): 5
C3H strain mice [2]; 1%, Week 4
  Level of hair growth (unaided visual inspection): 5
C3H strain mice [2]; 1%, Week 5
  Level of hair growth (unaided visual inspection): 5
C3H strain mice [2]; 1%, Week 6
  Level of hair growth (unaided visual inspection): 5
C3H strain mice [2]
  Promoting hair growth: effective in promoting hair growth

## CC1(C)[C@H](C(=O)O[C@H](C#N)c2cccc(Oc3ccccc3)c2)[C@@H]1C=C(Br)Br [Deltamethrin, deltamethrin]
Mice of the C3H strain
  Skin irritation (redness): failed to cause skin irritation
Mice (Sencar strain); [3]
  Right ear thickness: 26.0 ×0.01 mm
Mice (Sencar strain); [4]
  Right ear thickness: 27.3 ×0.01 mm
Mice (Sencar strain); [5]
  Right ear thickness: 29.0 ×0.01 mm
Mice (Sencar strain); [6]
  Right ear thickness: 28.0 ×0.01 mm
Mice (C3H strain); C3H mice
  Ear thickness compared to ethanol: did not increase ear thickness
Mice (C3H strain); [7]
  Right ear thickness: 27.0 ×0.01 mm
Mice (C3H strain); [8]
  Right ear thickness: 27.3 ×0.01 mm
Mice (C3H strain); [9]
  Right ear thickness: 27.3 ×0.01 mm
Mice (C3H strain); [10]
  Right ear thickness: 28.0 ×0.01 mm
C3H strain mice [1]
  Promoting hair growth: effective in promoting hair growth
C3H strain mice [1]; Day 7
  Level of hair growth (unaided visual inspection): 0
C3H strain mice [1]; Day 14
  Level of hair growth (unaided visual inspection): 0
C3H strain mice [1]; Day 19
  Level of hair growth (unaided visual inspection): 1
C3H strain mice [1]; Day 29
  Level of hair growth (unaided visual inspection): 5
C3H strain mice [1]; Day 36
  Level of hair growth (unaided visual inspection): 5
C3H strain mice [2]; 0.01%, Week 1
  Level of hair growth (unaided visual inspection): 0
C3H strain mice [2]; 0.01%, Week 2
  Level of hair growth (unaided visual inspection): 0
C3H strain mice [2]; 0.01%, Week 3
  Level of hair growth (unaided visual inspection): 1
C3H strain mice [2]; 0.01%, Week 4
  Level of hair growth (unaided visual inspection): 1
C3H strain mice [2]; 0.01%, Week 5
  Level of hair growth (unaided visual inspection): 1
C3H strain mice [2]; 0.01%, Week 6
  Level of hair growth (unaided visual inspection): 3
C3H strain mice [2]; 0.1%, Week 1
  Level of hair growth (unaided visual inspection): 0
C3H strain mice [2]; 0.1%, Week 2
  Level of hair growth (unaided visual inspection): 0
C3H strain mice [2]; 0.1%, Week 3
  Level of hair growth (unaided visual inspection): 5
C3H strain mice [2]; 0.1%, Week 4
  Level of hair growth (unaided visual inspection): 5
C3H strain mice [2]; 0.1%, Week 5
  Level of hair growth (unaided visual inspection): 5
C3H strain mice [2]; 0.1%, Week 6
  Level of hair growth (unaided visual inspection): 5
C3H strain mice [2]; 1%, Week 1
  Level of hair growth (unaided visual inspection): 0
C3H strain mice [2]; 1%, Week 2
  Level of hair growth (unaided visual inspection): 2
C3H strain mice [2]; 1%, Week 3
  Level of hair growth (unaided visual inspection): 5
C3H strain mice [2]; 1%, Week 4
  Level of hair growth (unaided visual inspection): 5
C3H strain mice [2]; 1%, Week 5
  Level of hair growth (unaided visual inspection): 5
C3H strain mice [2]; 1%, Week 6
  Level of hair growth (unaided visual inspection): 5
C3H strain mice [2]
  Promoting hair growth: effective in promoting hair growth

## CC(C)C(C(=O)OC(C#N)c1cccc(Oc2ccccc2)c1)c1ccc(Cl)cc1 (stereo not drawn) [Fenvalerate, fenvalerate]
Mice of the C3H strain
  Skin irritation (redness): failed to cause skin irritation
Mice (Sencar strain); [3]
  Right ear thickness: 24.0 ×0.01 mm
Mice (Sencar strain); [4]
  Right ear thickness: 26.3 ×0.01 mm
Mice (Sencar strain); [5]
  Right ear thickness: 26.7 ×0.01 mm
Mice (Sencar strain); [6]
  Right ear thickness: 26.7 ×0.01 mm
Mice (C3H strain); C3H mice
  Ear thickness compared to ethanol: did not increase ear thickness
Mice (C3H strain); [7]
  Right ear thickness: 27.3 ×0.01 mm
Mice (C3H strain); [8]
  Right ear thickness: 28.0 ×0.01 mm
Mice (C3H strain); [9]
  Right ear thickness: 28.0 ×0.01 mm
Mice (C3H strain); [10]
  Right ear thickness: 27.0 ×0.01 mm
C3H strain mice [1]
  Promoting hair growth: effective in promoting hair growth
C3H strain mice [1]; Day 7
  Level of hair growth (unaided visual inspection): 0
C3H strain mice [1]; Day 14
  Level of hair growth (unaided visual inspection): 0
C3H strain mice [1]; Day 19
  Level of hair growth (unaided visual inspection): 1
C3H strain mice [1]; Day 29
  Level of hair growth (unaided visual inspection): 4
C3H strain mice [1]; Day 36
  Level of hair growth (unaided visual inspection): 4
C3H strain mice [2]; 0.01%, Week 1
  Level of hair growth (unaided visual inspection): 0
C3H strain mice [2]; 0.01%, Week 2
  Level of hair growth (unaided visual inspection): 0
C3H strain mice [2]; 0.01%, Week 3
  Level of hair growth (unaided visual inspection): 0
C3H strain mice [2]; 0.01%, Week 4
  Level of hair growth (unaided visual inspection): 0
C3H strain mice [2]; 0.01%, Week 5
  Level of hair growth (unaided visual inspection): 0
C3H strain mice [2]; 0.01%, Week 6
  Level of hair growth (unaided visual inspection): 0
C3H strain mice [2]; 0.1%, Week 1
  Level of hair growth (unaided visual inspection): 0
C3H strain mice [2]; 0.1%, Week 2
  Level of hair growth (unaided visual inspection): 0
C3H strain mice [2]; 0.1%, Week 3
  Level of hair growth (unaided visual inspection): 5
C3H strain mice [2]; 0.1%, Week 4
  Level of hair growth (unaided visual inspection): 5
C3H strain mice [2]; 0.1%, Week 5
  Level of hair growth (unaided visual inspection): 5
C3H strain mice [2]; 0.1%, Week 6
  Level of hair growth (unaided visual inspection): 5
C3H strain mice [2]; 1%, Week 1
  Level of hair growth (unaided visual inspection): 0
C3H strain mice [2]; 1%, Week 2
  Level of hair growth (unaided visual inspection): 0*
C3H strain mice [2]; 1%, Week 3
  Level of hair growth (unaided visual inspection): 3*
C3H strain mice [2]; 1%, Week 4
  Level of hair growth (unaided visual inspection): 5
C3H strain mice [2]; 1%, Week 5
  Level of hair growth (unaided visual inspection): 5
C3H strain mice [2]; 1%, Week 6
  Level of hair growth (unaided visual inspection): 5
C3H strain mice [2]
  Promoting hair growth: effective in promoting hair growth

From patent US20010027213A1, “Use of pyrethroid compounds to promote hair growth” (priority 1998, published 2001)
